Laboratory results published in the supplement of paper PMC10307832.

Tests used:
Experiment in all cases: relative viability (nuclei count vs DMSO), 5 days (fraction); higher = more cells survive
[1] = compound: C[As](C)SC[C@H](NC(=O)CC[C@H](N)C(=O)O)C(=O)NCC(=O)O [Darinaparsin] + CCNC(=O)c1noc(-c2cc(C(C)C)c(O)cc2O)c1-c1ccc(CN2CCOCC2)cc1 [Luminespib] (partner 0.01 µM)
Method in brief: (§1)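 Each reported value is a median over duplicate plates. It expresses relative viability: treated-well nuclei count divided by vehicle-well nuclei count. Lung cancer cell lines in 1536-well plates were dosed by pin tool a day after seeding, alone with one drug or with a fixed anchor-drug dose plus five library-drug doses (not always all listed) in √10 steps, and nuclei were counted after 5 days.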

[2] = compound: C1CC2=C(C1)C=C(C=C2)OC3=NC(=C4C(=N3)N(C=N4)CC5=CC=C(C=C5)C6=CC=CC=C6)N[C@@H](CC7=CC=CC=C7)CO [QS11] + COc1cc2c(Oc3ccc(NC(=O)C4(C(=O)Nc5ccc(F)cc5)CC4)cc3F)ccnc2cc1OCCCN1CCOCC1 [Foretinib] (partner 0.25 µM)
Method in brief: as §1

[3] = compound: CC1=C(C=C(C=C1)NC(=O)C2=CC(=CC=C2)C(C)(C)C#N)NC3=CC4=C(C=C3)N=CN(C4=O)C [AZ628] + COc1cc2c(Oc3ccc(NC(=O)C4(C(=O)Nc5ccc(F)cc5)CC4)cc3F)ccnc2cc1OCCCN1CCOCC1 [Foretinib] (partner 0.25 µM)
Method in brief: as §1

[4] = compound: C[As](C)SC[C@H](NC(=O)CC[C@H](N)C(=O)O)C(=O)NCC(=O)O [Darinaparsin] + CC(C)C[C@H](NC(=O)[C@H](Cc1ccccc1)NC(=O)c1cnccn1)B(O)O [Bortezomib] (partner 0.002 µM)
Method in brief: as §1

Cell Line | relative viability ([1]; first compound 0.08 µM) | relative viability ([1]; first compound 0.8 µM) | relative viability ([1]; first compound 2.53 µM) | relative viability ([1]; first compound 8 µM) | relative viability ([2]; first compound 0.08 µM) | relative viability ([2]; first compound 0.253 µM) | relative viability ([2]; first compound 0.8 µM) | relative viability ([2]; first compound 2.53 µM) | relative viability ([2]; first compound 8 µM) | relative viability ([3]; first compound 0.08 µM) | relative viability ([3]; first compound 0.253 µM) | relative viability ([3]; first compound 0.8 µM) | relative viability ([3]; first compound 2.53 µM) | relative viability ([3]; first compound 8 µM) | relative viability ([4]; first compound 0.08 µM) | relative viability ([4]; first compound 0.8 µM) | relative viability ([4]; first compound 2.53 µM) | relative viability ([4]; first compound 8 µM)
HOP-62 | 1.1 | 0.811 | 0.793 | 1.09 | 1.11 | 1.33 | 0.766 | 0.742 | 0.708 | 1.05 | 1.07 | 1.02 | 0.999 | 0.629 | 1.31 | 0.784 | 1.12 | 0.671
LC-2-ad | 1.11 | 1.02 | 0.797 | 0.734 | 0.921 | 0.924 | 0.839 | 1.04 | 0.889 | 1.02 | 1.06 | 0.947 | 0.978 | 0.863 | 1.2 | 1.02 | 0.951 | 1.33
LCLC-103H | 1.14 | 0.876 | 0.882 | 1.22 | 0.526 | 0.883 | 0.672 | 0.7 | 0.784 | 0.724 | 0.753 | 0.802 | 0.729 | 0.853 | 1.05 | 0.978 | 1.14 | 1.35
LOU-NH91 | 0.407 | 0.31 | 0.306 | 0.345 | 0.854 | 0.926 | 0.904 | 0.875 | 0.94 | 0.956 | 0.961 | 0.956 | 0.95 | 0.821 | 0.495 | 0.56 | 0.537 | 0.519
LU99A | 0.228 | 0.24 | 0.241 | 0.222 | 0.785 | 0.796 | 0.855 | 0.772 | 0.748 | 0.862 | 0.767 | 0.833 | 0.861 | 0.431 | 1.33 | 1.01 | 1.17 | 1.21
LXF-289 | 0.773 | 0.499 | 0.578 | 1.06 | 0.994 | 1.05 | 0.704 | 0.875 | 0.834 | 1 | 0.942 | 0.879 | 0.961 | 0.641 | 1.09 | 1.03 | 0.81 | 1.19
NCI-H23 | 0.212 |  | 0.217 | 0.193 | 1.01 | 1.1 | 0.753 | 0.863 | 0.961 | 0.989 | 0.967 | 0.768 | 0.773 | 0.588 | 1.17 | 1.19 | 0.795 | 1.14
NCI-H322M | 1.01 | 0.859 | 0.596 | 0.839 | 1.06 | 1.04 | 1.06 | 1.09 | 1.44 | 1.05 | 0.985 | 0.952 | 1.02 | 0.829 | 1.21 | 1.3 | 1.04 | 1.32
NCI-H441 | 0.488 | 0.321 | 0.364 | 0.245 | 1.01 | 1.19 | 0.97 | 0.775 | 0.746 | 0.94 | 0.962 | 0.896 | 0.901 | 0.846 | 0.611 | 0.513 | 0.636 | 0.447
NCI-H460 | 0.0325 | 0.033 | 0.0441 | 0.0347 | 1.07 | 0.939 | 0.731 | 1.05 | 0.626 | 0.978 | 0.996 | 0.974 | 1.02 | 0.54 |  | 1.11 | 0.703 | 1.84
NCI-H520 | 0.219 | 0.21 | 0.222 | 0.192 | 0.703 | 1.08 | 1.12 | 0.792 | 0.867 | 0.834 | 0.7 | 0.76 | 0.802 | 0.631 | 0.765 | 0.491 | 0.531 | 0.474
NCI-H596 | 1.14 | 1.12 | 0.951 | 0.966 | 0.979 | 0.743 | 0.924 | 0.841 | 0.97 | 0.867 | 1.05 | 0.913 | 0.905 | 0.991 | 1.35 | 1.09 | 1 | 1
NCI-H647 | 0.176 | 0.154 | 0.0855 | 0.215 | 1.17 | 1.24 | 0.988 | 1.09 | 1.06 | 1.02 | 1.28 | 1.36 | 1.29 | 1.05 | 1.79 | 1.17 | 0.802 | 1.17
NCI-H650 | 0.81 | 0.793 | 0.872 | 0.831 | 1 | 1.11 | 0.994 | 0.924 | 1.02 | 1.02 | 1.21 | 1.19 | 1.14 | 1.13 | 0.881 | 0.894 | 0.728 | 0.776
NCI-H661 | 0.934 | 0.874 | 1.08 | 1.04 | 1 | 1.02 | 0.913 | 1.05 | 1.03 | 1.12 | 0.974 | 0.846 | 0.866 | 0.832 | 0.975 | 0.853 | 0.92 | 0.889
NCI-H727 | 0.175 | 0.314 | 0.285 | 0.343 | 1.2 | 0.888 | 0.829 | 1.06 | 0.869 | 0.628 | 0.455 | 0.383 | 0.319 | 0.322 | 0.912 | 0.742 | 0.963 | 0.986
NCI-H838 | 0.29 | 0.265 | 0.284 | 0.283 | 0.993 | 0.953 | 0.688 | 0.898 | 0.85 | 0.931 | 1 | 1.06 | 0.914 | 0.871 | 0.976 | 0.766 | 0.679 | 0.811
